# Legend:
# [1] = test system: S. aureus ATCC51650 and CI11; test: Time-dependent interaction of phage J-Sa36 and clindamycin (OD600); format: cell-based, Staphylococcus aureus; conditions: ½ MIC clindamycin only or J-Sa36 (MOI 0.2) only
# Experimental: OD600 readings were taken at addition of either phage or clindamycin and following the 24-hour incubation.
# The total amount of phage J-Sa36 added into the culture at different time points was adjusted to maintain MOI=0.2, according to the number of bacteria measured via CFU counts at each time point.
# [2] = test system: S. aureus CI3; test: Antibiotic sensitivity of the isolate selected for in vivo experiments; format: cell-based, Staphylococcus aureus
# Experimental: (§1) The minimum inhibitory concentration (MIC) of amoxicillin, vancomycin, erythromycin, clindamycin and azithromycin against the S. aureus strains was assessed using the broth microdilution technique as previously described (Wiegand I et al., Nature protocols 3 (2): 163-175, 2008) and breakpoints defined according to CSLI guidelines. Clinical strains resistant to at least one antibiotic in three or more antibiotic categories were defined as multidrug resistant (MDR).
# A fresh culture of CI3 on 1.5% TSA plates was prepared two days before inoculation. A single colony was resuspended in 0.9% saline (ca. 2 ml) to turbidity reading 0.5 McFarland Units and then a 1 in 100 dilution in TSB was cultured overnight one day before the in vivo experiment. CI3 pellets were harvested and resuspended in fresh TSB to reach 2.5×10^9 Colony Forming Units (CFU)/ml.
# [3] = test system: S. aureus C285; test: Clindamycin MIC assay (Example 2); format: cell-based; conditions: Staphylococcus aureus; strain C285
# Experimental: The MIC of clindamycin against the S. aureus strains was assessed using the broth microdilution technique as previously described (see Wiegand et al., 2008 supra). Results were interpreted as follows: Sensitive: ≤0.2 μg/mL; Intermediate: 0.4 μg/ml; Resistant: >0.6 μg/mL. The S. aureus strains sensitive to clindamycin were selected for further tests. The MIC was performed three times.
# [4] = test system: S. aureus CI11; test: Clindamycin MIC, broth microdilution; format: cell-based; conditions: Staphylococcus aureus
# Experimental: as §1
# [5] = test system: S. aureus ATCC51650; test: Clindamycin MIC, broth microdilution; format: cell-based; conditions: Staphylococcus aureus
# Experimental: as §1
# [6] = test system: S. aureus CI8; test: Phage replication by titer; format: cell-based, Staphylococcus aureus; conditions: 48 hours incubation
# Experimental: (§2) Phage titers were determined against S. aureus RN4220 (ATCC) using the double layer spot assay technique. Briefly, 100 μl of a S. aureus overnight culture was mixed with 4 mL of 0.4% TSA and poured onto a 1.5% TSA plate. […] After the plates were incubated in a humidified incubator at 37° C. overnight, plaques were counted, counts were averaged, and titers of the filtrate were calculated based on the dilution.
# (§3) A 100 μl sample was taken from an S. aureus culture (10 ml in TSB) after 0 and 48 hours following treatment with clindamycin, phage or a phage clindamycin co-incubation. The sample was treated with 25 μl of chloroform, shaken for 30 seconds, centrifuged (3000 rpm, 5 minutes, room temperature) and the supernatant used to determine phage titers against the same isolate. Phage titers in plaque forming units [PFU]/mL were recorded initially and at 48 hours to assess for phage replication. To allow for phage resistant (phage insensitive) bacterial isolates to show plaques, clindamycin was added to the soft agar overlay.
# [7] = test system: S. aureus CI11; test: Phage replication by titer; format: cell-based, Staphylococcus aureus; conditions: 48 hours incubation
# Experimental: as §2, §3
# [8] = test system: S. aureus ATCC51650; test: Phage replication by titer; format: cell-based, Staphylococcus aureus; conditions: 48 hours incubation
# Experimental: as §2, §3
# [9] = test system: S. aureus ATCC51650 and CI11 biofilms; test: Biofilm viability, AlamarBlue assay; format: cell-based, Staphylococcus aureus
# Experimental: Briefly, a 1.0 McFarland unit S. aureus culture suspended in 1:15 dilution in TSB was added to 96-well microtiter plates (Costar; Corning Incorporated, Corning, NY, United States of America). Plates were incubated for 48 hours at 37° C. on a rotating platform at 70 rpm (3D Gyratory Mixer; Ratek Instruments, Boronia, VIC, Australia) to allow biofilm formation followed by washing with phosphate-buffered saline. […] Wells were treated for 24 hours at 37° C. with gentle shaking. The AlamarBlue viability assay (Thermo Fisher Scientific, Waltham, MA, United States of America) was used as previously described (Richter K et al., editors. Mind “De GaPP”: in vitro efficacy of deferiprone and gallium-protoporphyrin against Staphylococcus aureus biofilms. International Forum of Allergy & Rhinology; 2016: Wiley Online Library to determine the anti-biofilm activity of the phage. Fluorescence was measured in a microplate reader (FLUOstar OPTIMA, BMG LABTECH, Offenburg, Germany) and the percent reduction of biofilm after treatment determined relative to untreated controls.
smiles,measurement,setting,value
CCC[C@@H]1C[C@@H](C(=O)N[C@@H]([C@H]2O[C@H](SC)[C@H](O)[C@@H](O)[C@H]2O)[C@H](C)Cl)N(C)C1 [clindamycin],"bacterial viability at 24 hours, single agent",[1],did not significantly affect bacterial viability
same,antibiotic sensitivity of the isolate,[2],sensitive
same,MIC,[3],0.2 µg/mL
same,MIC,[4],0.2 µg/mL
same,MIC,[5],0.2 µg/mL
same,plaques from supernatant after ½ MIC clindamycin only,[6],produced no plaques
same,plaques from supernatant after ½ MIC clindamycin only,[7],produced no plaques
same,plaques from supernatant after ½ MIC clindamycin only,[8],produced no plaques
same,reduction of clindamycin concentration required to significantly reduce biofilm viability by combination with phage,[9],five
same,minimal effective concentration,"[9]; Staphylococcus aureus, ATCC51650, 24 hours treatment, lower concentrations no significant effect, read-out: clindamycin alone: concentration significantly reducing viability of preformed biofilms",≥ 0.5 µg/mL

# — patent US20260286316A1, “METHOD OF PRODUCTION OF MODIFIED PHAGE AND METHOD OF TREATMENT USING SAME” (priority 2022, published 2026)
